Reference: patent publication US20250361227A1, “INHIBITORS OF FLI1 AND ERG” (UNIVERSITY OF VIRGINIA PATENT FOUNDATION, priority 2022, published 2025)

Assays:
[1] = target: T1, ELK1 (Homo sapiens, UniProt P19419); assay: Fluorescence polarization DNA binding assay, auto-inhibited ELK1; details: auto-inhibited construct; NA = no activity up to 2000 μM; >number = estimate from fit with lower bound
T1 sequence (P19419 1-428): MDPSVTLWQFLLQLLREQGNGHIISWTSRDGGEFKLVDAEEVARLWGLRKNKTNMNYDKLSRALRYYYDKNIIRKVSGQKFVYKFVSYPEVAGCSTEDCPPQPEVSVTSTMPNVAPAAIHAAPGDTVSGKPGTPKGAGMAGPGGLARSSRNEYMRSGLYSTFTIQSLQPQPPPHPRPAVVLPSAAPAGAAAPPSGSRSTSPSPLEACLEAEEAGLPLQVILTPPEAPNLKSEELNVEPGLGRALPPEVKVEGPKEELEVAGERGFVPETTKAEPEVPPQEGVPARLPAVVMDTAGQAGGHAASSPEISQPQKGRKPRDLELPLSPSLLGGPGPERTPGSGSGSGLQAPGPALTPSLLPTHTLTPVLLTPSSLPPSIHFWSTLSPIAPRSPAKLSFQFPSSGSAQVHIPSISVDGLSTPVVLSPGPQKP
From the text: (§1) The constructs of ERG which retain full auto-inhibition were previously delineated (17). Fluorescence polarization-based assays for DNA binding were then developed, which were used for screening. In addition to the auto-inhibited form of ERG, it was important to also have an assay using its Ets domain, i.e., the uninhibited form of the protein, to compare action of compounds. Compounds which are active against the auto-inhibited form of the protein but have little or no effect on the uninhibited form were sought, indicating their binding is mediated by the non-conserved auto-inhibitory modules rather than the highly conserved Ets domain. […] Fragment screening is an alternative approach that has gained a great deal of favor in the pharma industry recently that employs relatively small molecules (22). […] The auto-inhibited construct was screened first with a dose dependent screen of actives with ERGi using fluorescein- and Texas Red-DNA and then the positive hits were counter-screened with the ERG Ets domain, specifically a screen of actives with ERGu, the latter screen serving to remove compounds which bind to the conserved Ets domain or to DNA, which left 26 compounds which inhibit the auto-inhibited construct of ERG binding to DNA but not the uninhibited ERG (the Ets domain) binding to DNA. ERGi is the auto-inhibited construct of ERG (272-388) and ERGu is the uninhibited DNA binding domain construct of ERG (289-378). […] The IC50 of the validated hits was 0.6-7 mM. […] Importantly, chemical shift changes upon compound addition are observed in the ^15N-^1H HSQC NMR spectra of ERG for amino acids located in the auto-inhibitory modules of ERG, indicating they do interact with these regions of the protein. It is critical to also develop assays for other ETS family members to assess the specificity of action of the compounds identified in the screen, so auto-inhibited constructs were expressed and assays were developed for five other ETS family members and assays for additional members of the family were also developed.
(§2) Using a standard medicinal chemistry approach, further optimization of the fragment hits were pursued. The specificity of parent fragments and their optimized derivatives with 5 additional Ets proteins which are representatives of 5 additional sub-families, were evaluated, as shown in Table 2. […] NA in Table 2 represents no activity up to the 2000 μM maximum concentration. >number in Table 2 represents some activity at highest concentrations so data fit with a lower bound to obtain an estimate of IC50.

[2] = target: T2, ERG auto-inhibited construct (ERGi, 272-388) (Homo sapiens, UniProt P11308); assay: ERGi-DNA fluorescence polarization assay; assay type: binding; details: FP DNA binding; maximum concentration 2000 μM; read-out: IC50 ERG Auto-inhibited construct
T2 construct: made in house
T2 sequence (P11308 272-388 isoform P11308-1): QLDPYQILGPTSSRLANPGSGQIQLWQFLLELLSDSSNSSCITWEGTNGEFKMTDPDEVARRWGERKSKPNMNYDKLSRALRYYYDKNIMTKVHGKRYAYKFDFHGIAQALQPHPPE
From the text: as §1, §2

[3] = target: T3, ETV6 (TEL) (Homo sapiens, UniProt P41212); assay: Fluorescence polarization DNA binding assay, auto-inhibited ETV6; details: auto-inhibited construct; NA = no activity up to 2000 μM; >number = estimate from fit with lower bound
T3 sequence (P41212 1-452): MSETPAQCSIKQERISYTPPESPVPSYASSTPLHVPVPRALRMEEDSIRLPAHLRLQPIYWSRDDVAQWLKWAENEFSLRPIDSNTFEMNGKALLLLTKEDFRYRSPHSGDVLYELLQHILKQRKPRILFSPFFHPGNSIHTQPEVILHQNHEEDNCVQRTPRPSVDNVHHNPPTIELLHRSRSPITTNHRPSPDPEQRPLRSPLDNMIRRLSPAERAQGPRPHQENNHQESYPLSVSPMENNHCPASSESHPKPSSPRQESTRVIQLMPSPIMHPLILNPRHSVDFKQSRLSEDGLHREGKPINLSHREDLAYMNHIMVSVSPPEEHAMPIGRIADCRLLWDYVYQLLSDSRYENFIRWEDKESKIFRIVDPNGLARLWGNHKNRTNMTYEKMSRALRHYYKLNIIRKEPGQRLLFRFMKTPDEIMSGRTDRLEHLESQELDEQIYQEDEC
From the text: as §1, §2

[4] = target: T4, ELF3 (Homo sapiens, UniProt P78545); assay: Fluorescence polarization DNA binding assay, auto-inhibited ELF3; details: auto-inhibited construct; NA = no activity up to 2000 μM; >number = estimate from fit with lower bound
T4 sequence (P78545 1-371): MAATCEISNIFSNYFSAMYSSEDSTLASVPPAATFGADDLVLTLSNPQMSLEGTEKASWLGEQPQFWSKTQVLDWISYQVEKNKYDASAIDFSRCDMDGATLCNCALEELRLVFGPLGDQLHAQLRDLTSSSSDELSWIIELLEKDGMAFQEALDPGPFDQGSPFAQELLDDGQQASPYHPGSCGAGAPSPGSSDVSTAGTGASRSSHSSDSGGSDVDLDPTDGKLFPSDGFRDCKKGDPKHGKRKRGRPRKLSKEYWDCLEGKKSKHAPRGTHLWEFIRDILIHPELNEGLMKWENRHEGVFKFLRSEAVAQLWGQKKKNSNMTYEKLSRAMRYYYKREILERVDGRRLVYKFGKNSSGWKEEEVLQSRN
From the text: as §1, §2

[5] = target: Spi1 (PU.1) (Homo sapiens, UniProt P17947); assay: Fluorescence polarization DNA binding assay, auto-inhibited PU.1; details: auto-inhibited construct; NA = no activity up to 2000 μM; >number = estimate from fit with lower bound
From the text: as §1, §2

[6] = target: T5, Ets1 (Homo sapiens, UniProt P14921); assay: Fluorescence polarization DNA binding assay, auto-inhibited Ets-1; details: auto-inhibited construct; NA = no activity up to 2000 μM; >number = estimate from fit with lower bound
T5 sequence (P14921 1-441): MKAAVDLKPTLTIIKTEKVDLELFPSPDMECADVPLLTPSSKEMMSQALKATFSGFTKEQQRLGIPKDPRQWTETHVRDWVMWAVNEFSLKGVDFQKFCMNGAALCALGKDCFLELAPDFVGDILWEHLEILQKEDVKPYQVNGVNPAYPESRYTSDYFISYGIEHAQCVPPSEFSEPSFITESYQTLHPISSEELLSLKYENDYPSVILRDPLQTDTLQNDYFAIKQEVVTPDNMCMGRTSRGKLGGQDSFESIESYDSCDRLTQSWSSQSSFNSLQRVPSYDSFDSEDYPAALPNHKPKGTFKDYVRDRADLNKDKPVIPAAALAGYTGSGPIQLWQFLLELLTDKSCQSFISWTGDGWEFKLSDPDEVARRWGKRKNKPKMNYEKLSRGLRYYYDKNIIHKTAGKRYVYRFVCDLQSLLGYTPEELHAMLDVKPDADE
From the text: as §1, §2

[7] = target: T6, ERG isolated Ets domain (ERGu, 289-378) (Homo sapiens, UniProt P11308); assay: Fluorescence polarization DNA binding assay, uninhibited ERG; details: FP DNA binding, NA = no activity up to 2000 μM, >number = estimate from fit with lower bound
T6 construct: made in house
T6 sequence (P11308 289-378 isoform P11308-1): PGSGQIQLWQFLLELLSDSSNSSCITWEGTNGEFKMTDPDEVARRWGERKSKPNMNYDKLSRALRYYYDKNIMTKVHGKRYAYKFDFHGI
From the text: as §1, §2

[8] = target: T7, ERG (Homo sapiens, UniProt P11308); assay: Time-dependent ERG-DNA fluorescence polarization assay; details: time-dependent inhibition of ERG-DNA binding, irreversible inhibitor
T7 sequence (P11308 1-462 isoform P11308-1): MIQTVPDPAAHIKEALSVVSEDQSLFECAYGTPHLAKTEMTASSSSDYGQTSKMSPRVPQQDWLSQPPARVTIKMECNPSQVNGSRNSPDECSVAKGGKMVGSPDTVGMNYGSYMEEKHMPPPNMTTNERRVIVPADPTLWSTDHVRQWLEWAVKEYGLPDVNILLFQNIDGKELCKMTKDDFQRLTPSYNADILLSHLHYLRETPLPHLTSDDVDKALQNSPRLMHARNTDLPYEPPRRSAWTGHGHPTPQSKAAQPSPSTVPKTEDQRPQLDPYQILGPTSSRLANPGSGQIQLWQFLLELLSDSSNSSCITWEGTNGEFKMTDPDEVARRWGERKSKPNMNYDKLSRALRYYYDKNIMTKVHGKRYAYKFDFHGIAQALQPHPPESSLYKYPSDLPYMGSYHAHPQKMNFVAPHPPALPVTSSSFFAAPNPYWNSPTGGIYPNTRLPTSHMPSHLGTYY
Protocol: To assay such compounds time-dependent inhibition of ERG-DNA binding was recorded using a fluorescence polarization (FP) based assay and the rates were fitted to derive KI and kinact for the compounds which were ranked based on the kinact/KI values as has been described previously.
These compounds were assayed using the time-dependent ERG-DNA assay described above. Importantly, time-dependent inhibition was observed, a hallmark of irreversible inhibitors. […] ERG inhibitors show time-dependent inhibition characteristics of irreversible inhibitors based on the following formula: […]
Kobs values were determined from the initial slope for the first 15 minutes. NMR chemical shift perturbation data was consistent with 2 binding sites on ERG. FIG. 14A and FIG. 14B show selected changes in chemical shift for resonances in the ^15N-^1H HSQC NMR spectrum of ERGi upon addition of KK-36-25.

[9] = tested on: leukemia cell lines; assay: Panel of leukemia cell lines; assay type: cell-based; details: Jurkat, RS4-11, Kasumi, K562, THP-1
Protocol: (§3) The compounds of formula (I), in particular those in Table 3, were tested for their effects on the growth of Ewing sarcoma cell lines as well as a rhabdomyosarcoma cell line as a control. The inhibitors are active against Ewing sarcoma cell lines with sub μM EC50 values but not active with the rhabdomyosarcoma cell line. The relative activity of the compounds in the biochemical assay was also observed in the cellular data, consistent with an on-target mechanism of action. […] The inhibitor decreases expression of the two genes activated by EWS-FL11 and activates the expression of the gene repressed by EWS-FLI1, consistent with an on-target mechanism of action. The inhibitors have also been evaluated across a panel of leukemia cell lines and see selective activity on cell lines with an ERG and/or FLI1 dependence.
ERG inhibitor effects on leukemia cell lines. FIG. 17A-17D and FIG. 18A-18C show the effects of the ERG inhibitor on several leukemia cell lines. […] ERG inhibitors show efficacy against T-ALL cell line (Jurkat) and selective activity against specific leukemia cell lines. […] As expected from previous literature indicating a strong dependence on ERG for T-ALL, the T-ALL cell line Jurkat is quite sensitive to the ERG inhibitors (sub μM IC50 values). […]

[10] = tested on: Ewing's sarcoma cell lines; assay: Growth of Ewing's sarcoma cell lines; assay type: cell-based; details: read-out: IC50 values for inhibition of the growth
Protocol: as §3
Evaluation of ERG inhibitors on Ewing's sarcoma cell lines. FIGS. 16A-16D show the results of treatment of Ewing's sarcoma cell lines with the bivalent ERG inhibitors. […] Ewing's sarcoma has EWS-FLI1 and EWS-ERG fusions (FLI1 is highly homologous to ERG). ERG inhibitors show submicromolar EC50 values for Ewing's sarcoma cell lines. […] Importantly, for the unrelated rhabdomyosarcoma cell line included in this panel, there was minimal inhibition of growth.

Row | IC50 [1] [µM] | IC50 [2] [µM] | IC50 [3] [µM] | IC50 [4] [µM] | IC50 [5] [µM] | IC50 [6] [µM] | IC50 [7] [µM] | Ki [8] [µM] | IC50 [10] [µM] | Structure (SMILES) | selectivity across leukemia cell lines [9]
1 | > 2500 | 837 | > 4400 | 1740 | > 3300 | > 2600 | > 2000 |  |  | CCNc1cc(-c2nc3ccccc3o2)ccc1C [KK-23-07] | 
2 |  |  |  |  |  |  |  | 6.3 | ≤ 1 | Cc1ccc(-c2nc3cc(Cl)c(NC(=O)CCOCCn4cc(COCCOCCOc5ccc(S(=O)(=O)C6CCN(C(=O)/C=C/c7cc8ccccc8o7)C6)cc5)nn4)cc3o2)cc1 (centres unmarked) [KK-36-25] | selective for Leukemia cell lines dependent on ERG
3 |  |  |  |  |  |  |  |  | ≤ 1 | Cc1ccc(-c2nc3cc(Cl)c(NC(=O)CCOCCn4cc(COCCOCCOCCOc5ccc(S(=O)(=O)C6CCN(C(=O)/C=C/c7cc8ccccc8o7)C6)cc5)nn4)cc3o2)cc1 (centres unmarked) [KK-36-84] | 
